Results reported in PMC5454865 (International Journal of Molecular Sciences, 2017).
Values joined by “and” are separate entries in the source; they are usually repeats but may differ in a detail not shown here. Equal values may be shown once. Read-outs that look alike come from different tables or passages of the source.

What was measured:
CYP3A4 [1] = target: T1, CYP3A4 (Homo sapiens, UniProt P08684); conditions: human liver microsomes; cited from earlier work
CYP2C9 [2] = target: T2, CYP2C9 (Homo sapiens, UniProt P11712); set-up: incubated with human liver microsomes (0.1 mg/mL); tissue Corning Life Sciences 452161; host or cells: pooled human liver microsomes; conditions: cited from earlier work
T2 sequence (P11712 whole entry): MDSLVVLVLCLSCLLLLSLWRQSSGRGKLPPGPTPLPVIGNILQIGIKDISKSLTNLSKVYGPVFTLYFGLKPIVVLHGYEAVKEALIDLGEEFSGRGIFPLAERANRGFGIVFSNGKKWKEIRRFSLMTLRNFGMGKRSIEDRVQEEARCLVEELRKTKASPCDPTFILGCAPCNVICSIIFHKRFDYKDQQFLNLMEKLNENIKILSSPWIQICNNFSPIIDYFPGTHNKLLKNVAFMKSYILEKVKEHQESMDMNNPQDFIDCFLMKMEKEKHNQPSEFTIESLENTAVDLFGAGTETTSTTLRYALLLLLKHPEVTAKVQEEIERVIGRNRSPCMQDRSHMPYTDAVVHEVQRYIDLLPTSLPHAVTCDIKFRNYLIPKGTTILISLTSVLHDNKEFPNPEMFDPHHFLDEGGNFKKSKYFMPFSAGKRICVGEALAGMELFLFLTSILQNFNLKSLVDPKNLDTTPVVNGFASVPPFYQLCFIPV

CYP2A6 = target: T3, CYP2A6 (Homo sapiens, UniProt P11509); assay: CYP2A6-catalyzed coumarin 7-hydroxylation, substrate cocktail, LC-MS/MS; conditions: human liver microsomes
T3 sequence (P11509 1-494): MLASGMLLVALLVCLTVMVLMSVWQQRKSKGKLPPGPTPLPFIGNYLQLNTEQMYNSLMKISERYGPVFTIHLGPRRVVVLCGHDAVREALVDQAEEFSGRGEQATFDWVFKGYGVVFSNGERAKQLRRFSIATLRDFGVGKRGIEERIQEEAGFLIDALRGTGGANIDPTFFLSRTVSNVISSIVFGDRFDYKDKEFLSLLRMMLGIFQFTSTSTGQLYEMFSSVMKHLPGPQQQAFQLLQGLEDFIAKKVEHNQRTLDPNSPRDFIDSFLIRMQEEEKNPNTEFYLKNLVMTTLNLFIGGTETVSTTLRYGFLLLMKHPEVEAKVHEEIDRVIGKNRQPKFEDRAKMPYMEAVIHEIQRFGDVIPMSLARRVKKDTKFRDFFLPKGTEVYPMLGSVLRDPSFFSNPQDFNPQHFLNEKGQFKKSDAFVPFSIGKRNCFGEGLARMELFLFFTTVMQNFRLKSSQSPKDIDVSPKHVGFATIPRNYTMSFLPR
Experimental: (§1) After 3 min pre-incubation at 37 °C, the reaction mixtures were incubated for 15 min at 37 °C with the addition of NADPH in a shaking water bath. The reaction was stopped by adding 100 μL of ice-cold methanol containing internal standards (d9-1′-hydroxybufuralol for 1′-hydroxybufuralol, 4′-hydroxydiclofenac, 7-hydroxycoumarin, 1′-hydroxymidazolam, and 4′-hydroxymephenytoin; ^13C2, ^15N-acetaminophen for acetaminophen and N-desethylamodiaquine). The mixtures were centrifuged at 13,000× g for 4 min at 4 °C. All assays were performed in triplicate and the average values were used for the subsequent calculations. […] Then, the reaction mixtures were incubated with addition of the seven-CYP probe substrate cocktail for 15 min at 37 °C. The control reaction was performed by adding acetonitrile instead of the test compounds.
(§2) Seven metabolites were simultaneously determined using a tandem mass spectrometer (TSQ Quantum Access; Thermo Scientific, San Jose, CA, USA) equipped with an electrospray ionization (ESI) source coupled to a NANOSPACE SI-2 LC system (Shiseido, Tokyo, Japan). The column and autosampler temperatures were 50 and 6 °C, respectively. The ESI source settings for the ionization of metabolites were as follows: polarity, positive ion mode; capillary voltage, 4200 V; capillary temperature, 330 °C; vaporizer temperature, 350 °C; auxiliary gas pressure, 15 psi; and sheath gas pressure, 35 psi. […] Analytical data were processed using Xcalibur™ software (Thermo Scientific, San Jose, CA, USA).
(§3) The IC50 values were calculated using SigmaPlot ver. 11.0 (Systat Software, Inc., San Jose, CA, USA).

CYP2C9 [3] = target: T2, CYP2C9; conditions: microsomes
Experimental: as §1, §2, §3

CYP2D6 [4] = target: T4, CYP2D6 (Homo sapiens, UniProt P10635); conditions: microsomes
T4 sequence (P10635 whole entry): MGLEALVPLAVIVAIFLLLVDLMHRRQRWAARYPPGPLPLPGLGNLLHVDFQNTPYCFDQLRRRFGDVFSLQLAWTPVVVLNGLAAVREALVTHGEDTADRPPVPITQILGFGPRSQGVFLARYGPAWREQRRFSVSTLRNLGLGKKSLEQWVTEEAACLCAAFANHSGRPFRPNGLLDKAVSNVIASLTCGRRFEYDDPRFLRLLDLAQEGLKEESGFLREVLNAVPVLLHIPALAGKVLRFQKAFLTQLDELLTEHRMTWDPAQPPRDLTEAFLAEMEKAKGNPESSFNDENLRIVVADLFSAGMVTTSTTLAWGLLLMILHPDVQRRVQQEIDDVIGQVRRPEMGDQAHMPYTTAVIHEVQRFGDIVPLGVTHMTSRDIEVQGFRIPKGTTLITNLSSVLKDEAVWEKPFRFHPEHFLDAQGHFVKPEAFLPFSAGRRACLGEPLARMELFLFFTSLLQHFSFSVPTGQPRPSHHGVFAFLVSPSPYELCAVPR
Experimental: as §1, §2
(§4) The IC50 values were calculated using SigmaPlot ver. 11.0 (Systat Software, Inc., San Jose, CA, USA). Ki, kinact, and the inhibition mode were determined using Enzyme Kinetics ver. 1.1 (Systat Software, Inc.).

CYP2C8 [5] = target: T5, CYP2C8 (Homo sapiens, UniProt P10632)
T5 sequence (P10632 1-490): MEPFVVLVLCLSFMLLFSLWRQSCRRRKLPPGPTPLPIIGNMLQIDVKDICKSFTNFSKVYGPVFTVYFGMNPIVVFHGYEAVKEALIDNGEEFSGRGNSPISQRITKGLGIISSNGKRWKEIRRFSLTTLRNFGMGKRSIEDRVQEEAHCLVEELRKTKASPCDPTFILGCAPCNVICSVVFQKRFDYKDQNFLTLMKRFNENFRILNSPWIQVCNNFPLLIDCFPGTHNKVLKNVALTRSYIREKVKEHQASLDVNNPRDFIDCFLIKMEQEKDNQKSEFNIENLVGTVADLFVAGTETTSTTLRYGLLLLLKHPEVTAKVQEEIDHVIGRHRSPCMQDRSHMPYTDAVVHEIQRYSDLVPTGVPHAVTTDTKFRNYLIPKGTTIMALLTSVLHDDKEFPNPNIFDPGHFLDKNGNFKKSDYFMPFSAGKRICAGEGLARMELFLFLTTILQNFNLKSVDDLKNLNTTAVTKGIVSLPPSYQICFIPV
Experimental: as §1, §2, §3

[6] = test system: eight CYP enzymes (CYPs 1A2, 2A6, 2B6, 2C8, 2C9, 2C19, 2D6, and 3A4); assay: IC50 shift after 30-min pre-incubation with NADPH, panel of eight CYP enzymes; conditions: human liver microsomes
Experimental: as §1
After 3 min pre-incubation at 37 °C, the reaction mixtures were incubated with the addition of NADPH in a shaking water bath for 15 min at 37 °C. The reaction was stopped by adding 100 μL of ice-cold d9-1′-hydroxybufuralol (internal standard) in methanol. The mixtures were centrifuged at 13,000× g for 4 min at 4 °C. All incubations were performed in triplicate, and the average values were used for the subsequent calculations. […] Then, the reaction mixtures were incubated with the addition of NADPH and bupropion for 15 min at 37 °C. […]

CYP2B6 = target: T6, CYP2B6 (Homo sapiens, UniProt P20813); assay: CYP2B6-catalyzed bupropion hydroxylation, LC-MS/MS; type: in vitro ADME; conditions: human liver microsomes
T6 construct: pooled human liver microsomes (0.2 mg/mL), 50 μM bupropion; tissue Corning Life Sciences 452161; host or cells: pooled human liver microsomes
T6 sequence (P20813 1-491): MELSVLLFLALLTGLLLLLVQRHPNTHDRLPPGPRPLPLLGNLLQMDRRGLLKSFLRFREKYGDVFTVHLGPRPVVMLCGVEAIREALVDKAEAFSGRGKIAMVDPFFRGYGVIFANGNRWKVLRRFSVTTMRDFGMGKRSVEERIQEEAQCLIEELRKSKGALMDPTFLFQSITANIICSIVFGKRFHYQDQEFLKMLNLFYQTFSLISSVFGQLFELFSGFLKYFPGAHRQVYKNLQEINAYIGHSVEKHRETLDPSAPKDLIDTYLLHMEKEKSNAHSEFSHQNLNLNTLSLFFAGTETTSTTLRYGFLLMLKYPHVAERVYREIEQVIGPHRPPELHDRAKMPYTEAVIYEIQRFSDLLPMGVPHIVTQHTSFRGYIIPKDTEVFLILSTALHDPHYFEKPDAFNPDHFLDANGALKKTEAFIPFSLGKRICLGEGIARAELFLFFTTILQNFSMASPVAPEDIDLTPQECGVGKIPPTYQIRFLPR
Experimental: After 3 min pre-incubation at 37 °C, the reaction mixtures were incubated with the addition of NADPH in a shaking water bath for 15 min at 37 °C. The reaction was stopped by adding 100 μL of ice-cold d9-1′-hydroxybufuralol (internal standard) in methanol. The mixtures were centrifuged at 13,000× g for 4 min at 4 °C. All incubations were performed in triplicate, and the average values were used for the subsequent calculations. […] Then, the reaction mixtures were incubated with the addition of NADPH and bupropion for 15 min at 37 °C. The control reaction was performed by the addition of acetonitrile instead of the test compounds. Hydroxybupropion concentrations were quantified using the LC-MS/MS method described above; the SRM transitions for hydroxybupropion and d9-1′-hydroxybufuralol were 256.1 > 238.0 and 287.2 > 187.0, respectively.
The IC50 values were calculated using SigmaPlot ver.

CYP2C19 [7] = target: T7, CYP2C19 (Homo sapiens, UniProt P33261)
T7 sequence (P33261 whole entry): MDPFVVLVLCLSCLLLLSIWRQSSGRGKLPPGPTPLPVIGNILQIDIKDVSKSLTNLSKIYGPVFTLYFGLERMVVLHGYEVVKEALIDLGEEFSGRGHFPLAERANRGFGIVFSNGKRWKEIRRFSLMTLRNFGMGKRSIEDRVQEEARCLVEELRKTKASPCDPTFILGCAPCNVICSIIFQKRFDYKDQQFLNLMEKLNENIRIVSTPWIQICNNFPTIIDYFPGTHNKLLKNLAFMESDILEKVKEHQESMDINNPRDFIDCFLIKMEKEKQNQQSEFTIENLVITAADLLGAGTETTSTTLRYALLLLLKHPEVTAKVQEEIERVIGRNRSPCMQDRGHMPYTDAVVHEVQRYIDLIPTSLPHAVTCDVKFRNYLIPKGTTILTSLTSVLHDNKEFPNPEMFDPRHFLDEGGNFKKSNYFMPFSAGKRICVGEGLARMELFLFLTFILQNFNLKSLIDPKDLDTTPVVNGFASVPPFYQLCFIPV
Experimental: as §1, §2, §3

CYP1A2 [8] = target: T8, CYP1A2 (Homo sapiens, UniProt P05177); conditions: microsomes
T8 sequence (P05177 1-516): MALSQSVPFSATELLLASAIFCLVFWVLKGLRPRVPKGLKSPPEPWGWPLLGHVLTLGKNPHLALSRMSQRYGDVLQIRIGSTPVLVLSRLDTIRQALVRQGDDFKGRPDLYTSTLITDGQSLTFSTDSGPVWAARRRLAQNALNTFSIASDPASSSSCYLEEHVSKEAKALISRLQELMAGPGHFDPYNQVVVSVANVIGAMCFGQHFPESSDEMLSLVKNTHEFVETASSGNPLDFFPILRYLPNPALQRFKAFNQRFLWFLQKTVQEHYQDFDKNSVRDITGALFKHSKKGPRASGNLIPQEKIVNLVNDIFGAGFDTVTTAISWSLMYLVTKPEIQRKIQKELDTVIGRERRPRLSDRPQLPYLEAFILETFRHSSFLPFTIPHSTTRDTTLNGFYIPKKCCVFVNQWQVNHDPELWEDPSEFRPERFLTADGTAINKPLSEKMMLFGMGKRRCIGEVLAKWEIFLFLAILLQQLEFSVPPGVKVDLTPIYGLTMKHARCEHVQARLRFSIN
Experimental: as §1, §2, §3

CYP3A4 [9] = target: T1, CYP3A4; conditions: microsomes
Experimental: as §1, §2, §4

CYP2C19 [10] = target: T7, CYP2C19; conditions: microsomes
Experimental: as §1, §2, §3

CYP2C8 [11] = target: T5, CYP2C8; assay: CYP2C8-catalyzed amodiaquine N-deethylation, substrate cocktail, LC-MS/MS; conditions: human liver microsomes
Experimental: as §1, §2, §3

CYP2C19 [12] = target: T7, CYP2C19; assay: CYP2C19-catalyzed [S]-mephenytoin 4′-hydroxylation, substrate cocktail, LC-MS/MS; conditions: human liver microsomes
Experimental: as §1, §2, §3

CYP3A4 [13] = target: T1, CYP3A4; assay: CYP3A4-catalyzed midazolam 1′-hydroxylation, substrate cocktail, LC-MS/MS; conditions: human liver microsomes
Experimental: as §1, §2, §4

CYP1A2 [14] = target: T8, CYP1A2; assay: CYP1A2-catalyzed phenacetin O-deethylation, substrate cocktail, LC-MS/MS; conditions: human liver microsomes
Experimental: as §1, §2, §3

CYP2D6 [15] = target: T4, CYP2D6; assay: CYP2D6-catalyzed bufuralol 1′-hydroxylation, substrate cocktail, LC-MS/MS; conditions: human liver microsomes
Experimental: as §1, §2, §4

CYP2C9 [16] = target: T2, CYP2C9; assay: CYP2C9-catalyzed diclofenac 4′-hydroxylation, substrate cocktail, LC-MS/MS; conditions: human liver microsomes
Experimental: as §1, §2, §3

T1 sequence (P08684 whole entry): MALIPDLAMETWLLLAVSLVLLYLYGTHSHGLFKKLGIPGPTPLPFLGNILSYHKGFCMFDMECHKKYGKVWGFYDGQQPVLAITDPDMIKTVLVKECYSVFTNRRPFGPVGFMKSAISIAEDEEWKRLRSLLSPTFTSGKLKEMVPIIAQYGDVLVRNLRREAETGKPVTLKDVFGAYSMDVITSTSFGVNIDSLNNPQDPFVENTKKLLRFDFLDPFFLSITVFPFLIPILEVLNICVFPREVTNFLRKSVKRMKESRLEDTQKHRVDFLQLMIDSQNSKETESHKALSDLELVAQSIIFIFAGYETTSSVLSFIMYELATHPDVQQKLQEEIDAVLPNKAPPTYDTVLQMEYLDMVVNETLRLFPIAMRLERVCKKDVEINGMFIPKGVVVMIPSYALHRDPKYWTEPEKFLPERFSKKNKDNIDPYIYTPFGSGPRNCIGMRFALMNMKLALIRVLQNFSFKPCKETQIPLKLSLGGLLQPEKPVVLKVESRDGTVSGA

In the case of `COc1cc([C@H]2OC[C@H]3[C@@H]2CO[C@@H]3c2ccc3c(c2)OCO3)cc(OC)c1OC` [aschantin], the “kinact/Ki against CYP3A4” value (CYP3A4 [1]) is listed as 8.2e+07 M⁻¹ s⁻¹, the “kinact, mechanism-based inhibition of CYP2C9” value (CYP2C9 [2]) is listed as 0.044 min⁻¹ and the Ki (CYP2C9 [2]; read-out: Ki, mechanism-based inhibition of CYP2C9) is listed as 3.7 µM.
For `COc1cc([C@H]2OC[C@H]3[C@@H]2CO[C@@H]3c2cc(OC)c(OC)c(OC)c2)cc(OC)c1OC` [dimethyllirioresinol], the “Inhibition of CYP2A6 activity at 100 μM” value (CYP2A6) was “without inhibition”, the “Inhibition of CYP2C9 activity at 100 μM” value (CYP2C9 [3]) was “without inhibition” and the “Inhibition of CYP2D6 activity at 100 μM” value (CYP2D6 [4]) was “without inhibition”. For the same molecule, the IC50 (CYP2C8 [5]) was 85 µM and 67.2 µM, the “IC50 value shift of eight CYP enzymes after 30-min pre-incubation” value [6] was “did not cause the IC50 value shift” and the “Inhibition of CYP2B6 activity at 100 μM” value (CYP2B6) was “without inhibition”. The IC50 (CYP2C19 [7]) was 55.1 µM and 49.8 µM, the “Inhibition of CYP1A2 activity at 100 μM” value (CYP1A2 [8]) was “without inhibition” and the “Inhibition of CYP3A4 activity at 100 μM” value (CYP3A4 [9]) was “without inhibition”.
For `O=c1c2ccccc2nc2n1CCc1c-2[nH]c2ccccc12` [rutaecarpine], the “kinact/Ki against CYP3A4” value (CYP3A4 [1]) is given as 5.98e+07 M⁻¹ s⁻¹.
For `CC(C)=CCC/C(C)=C/COc1c2ccoc2cc2oc(=O)ccc12` [bergamottin], the “kinact/Ki against CYP3A4” value (CYP3A4 [1]) is listed as 3.3e+07 M⁻¹ s⁻¹.
For `COc1ccc([C@H]2OC[C@H]3[C@@H]2CO[C@@H]3c2ccc(OC)c(OC)c2)cc1OC` [eudesmin], the “Inhibition of CYP2A6 activity at 100 μM” value (CYP2A6) was “negligibly inhibited”, the “Inhibition of CYP2C9 activity at 100 μM” value (CYP2C9 [3]) was “negligibly inhibited” and the “Inhibition of CYP2C19 activity at 100 μM” value (CYP2C19 [10]) was “negligibly inhibited”. For the same molecule, the “Inhibition of CYP2D6 activity at 100 μM” value (CYP2D6 [4]) was “negligibly inhibited”, the “IC50 value shift of eight CYP enzymes after 30-min pre-incubation” value [6] was “did not cause the IC50 value shift” and the “Inhibition of CYP2B6 activity at 100 μM” value (CYP2B6) was “negligibly inhibited”. The “Inhibition of CYP1A2 activity at 100 μM” value (CYP1A2 [8]) was “negligibly inhibited”, the “Inhibition of CYP2C8 activity at 100 μM” value (CYP2C8 [11]) was “negligibly inhibited” and the “Inhibition of CYP3A4 activity at 100 μM” value (CYP3A4 [9]) was “negligibly inhibited”.
For `COc1cc([C@@H]2c3cc4c(cc3[C@H](O)[C@H]3COC(=O)[C@H]23)OCO4)cc(OC)c1OC` [podophyllotoxin], the “kinact/Ki against CYP3A4” value (CYP3A4 [1]) is given as 2.272e+08 M⁻¹ s⁻¹ and the Ki (CYP2C9 [2]; read-out: Ki, CYP2C9 activity) is given as 2 µM.
In the case of `CNCCC(Oc1ccc(C(F)(F)F)cc1)c1ccccc1` (centres unmarked) [fluoxetine], the “kinact/Ki against CYP3A4” value (CYP3A4 [1]) is given as 5.33e+07 M⁻¹ s⁻¹.
In the case of `COc1cc([C@@H]2c3cc4c(cc3C[C@H]3COC(=O)[C@@H]32)OCO4)cc(OC)c1OC` [deoxypodophyllotoxin], the Ki (CYP2C9 [2]; read-out: Ki, CYP2C9 activity) is listed as 3.5 µM.
In the case of `COc1ccc([C@@H]2OC[C@H]3[C@@H]2CO[C@@H]3c2cc(OC)c(OC)c(OC)c2)cc1OC` [epimagnolin A], the “Inhibition of CYP2C19 activity at 100 μM” value (CYP2C19 [12]) is reported as “negligibly inhibited”, the “Inhibition of CYP3A4 activity at 100 μM” value (CYP3A4 [13]) is reported as “negligibly inhibited” and the “Inhibition of CYP2A6 activity at 100 μM” value (CYP2A6) is reported as “negligibly inhibited”. The “Inhibition of CYP1A2 activity at 100 μM” value (CYP1A2 [14]) was “negligibly inhibited”, the “Inhibition of CYP2D6 activity at 100 μM” value (CYP2D6 [15]) was “negligibly inhibited” and the “Inhibition of CYP2B6 activity at 100 μM” value (CYP2B6) was “negligibly inhibited”. For the same molecule, the “Inhibition of CYP2C8 activity at 100 μM” value (CYP2C8 [11]) was “negligibly inhibited” and the “Inhibition of CYP2C9 activity at 100 μM” value (CYP2C9 [16]) was “negligibly inhibited”.
For `CC[C@H]1OC(=O)[C@H](C)[C@@H](O[C@H]2C[C@@](C)(OC)[C@@H](O)[C@H](C)O2)[C@H](C)[C@@H](O[C@@H]2O[C@H](C)C[C@H](N(C)C)[C@H]2O)[C@](C)(OC)C[C@@H](C)C(=O)[C@H](C)[C@@H](O)[C@]1(C)O` [clarithromycin], the “kinact/Ki against CYP3A4” value (CYP3A4 [1]) is given as 1.7e+07 to 2.17e+08 M⁻¹ s⁻¹.
In the case of `COc1ccc([C@H]2OC[C@H]3[C@@H]2CO[C@@H]3c2cc(OC)c(OC)c(OC)c2)cc1OC` [magnolin], the “Inhibition of CYP2C19 activity at 100 μM” value (CYP2C19 [12]) is reported as “negligibly inhibited”, the “Inhibition of CYP3A4 activity at 100 μM” value (CYP3A4 [13]) is reported as “negligibly inhibited” and the “Inhibition of CYP2A6 activity at 100 μM” value (CYP2A6) is reported as “negligibly inhibited”. For the same molecule, the “Inhibition of CYP1A2 activity at 100 μM” value (CYP1A2 [14]) was “negligibly inhibited”, the “Inhibition of CYP2D6 activity at 100 μM” value (CYP2D6 [15]) was “negligibly inhibited” and the “Inhibition of CYP2B6 activity at 100 μM” value (CYP2B6) was “negligibly inhibited”. For the same molecule, the “Inhibition of CYP2C8 activity at 100 μM” value (CYP2C8 [11]) was “negligibly inhibited” and the “Inhibition of CYP2C9 activity at 100 μM” value (CYP2C9 [16]) was “negligibly inhibited”.
